{
  "source": "paper PMC9421655",
  "about": "“Novel Antagonist of the Type 2 Lysophosphatidic Acid Receptor (LPA2), UCM-14216, Ameliorates Spinal Cord Injury in Mice” (Journal of Medicinal Chemistry, 2022)",
  "key": {"LPA1": {"target": "LPA1 (Homo sapiens, UniProt Q92633)", "sequence (Q92633 whole entry, species assumed)": "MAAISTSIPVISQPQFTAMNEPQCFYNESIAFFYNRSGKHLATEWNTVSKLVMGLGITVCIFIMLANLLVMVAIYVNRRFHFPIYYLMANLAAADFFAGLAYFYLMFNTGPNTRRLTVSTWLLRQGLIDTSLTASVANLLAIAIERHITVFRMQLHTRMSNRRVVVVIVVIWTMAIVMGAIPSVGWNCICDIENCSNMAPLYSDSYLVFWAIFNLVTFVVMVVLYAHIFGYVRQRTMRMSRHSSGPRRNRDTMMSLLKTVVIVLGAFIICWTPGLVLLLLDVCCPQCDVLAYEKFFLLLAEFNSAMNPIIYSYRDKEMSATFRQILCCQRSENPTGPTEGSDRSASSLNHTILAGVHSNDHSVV", "assay": "cell-based", "settings": "maximum blockade of activation induced by 10 μM LPA (18:1) at 10 μM compound; N.E. = no effect at 10 μM", "method": "(§1) Cells stably expressing the corresponding LPA1–3 receptor were grown as described previously.[18] Changes in intracellular calcium levels were measured by using the fluorescent calcium sensitive dye Fluo-4 NW (Invitrogen). RH7777 cells or B103 cells were plated on poly-D-lysine or collagen coated, respectively, black-wall clear-bottom 96-well plates (Corning) at a density of 50 000 cells/well and cultured overnight. The culture medium was then replaced with 100 μL of Fluo-4 NW dye loading solution containing 2.5 μM of probenecid and incubated for 30 min at 37 °C followed by an additional 30 min at rt. […] Fluorescence changes were registered in a FluoStar Optima instrument (BMG Labtech) at 525 nm using an excitation wavelength of 494 nm. […] The data presented are from two to four independent experiments carried out in triplicate or quadruplicate. Dose–response curves were generated and IC50 values calculated by nonlinear regression analysis using Prism software version 5 (GraphPad Software Inc., San Diego, CA, USA)."}, "LPA2 [1]": {"target": "T1, LPA2 (Homo sapiens, UniProt Q9HBW0)", "T1 construct": "expressed in transfected cells", "T1 sequence (Q9HBW0 whole entry, species assumed)": "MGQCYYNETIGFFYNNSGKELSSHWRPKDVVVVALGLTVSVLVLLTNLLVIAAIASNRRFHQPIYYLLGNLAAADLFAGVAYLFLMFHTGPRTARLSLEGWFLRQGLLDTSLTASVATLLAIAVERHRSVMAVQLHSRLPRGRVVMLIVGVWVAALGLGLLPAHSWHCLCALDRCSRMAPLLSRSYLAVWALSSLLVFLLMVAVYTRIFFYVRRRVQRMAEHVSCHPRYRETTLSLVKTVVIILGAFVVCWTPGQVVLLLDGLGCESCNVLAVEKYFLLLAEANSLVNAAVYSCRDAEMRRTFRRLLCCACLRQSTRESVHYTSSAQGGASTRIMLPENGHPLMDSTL", "assay": "Ca2+ mobilization assay, antagonist activity at LPA2", "type": "cell-based", "set-up": "Emax: dose or concentration left out as unconfirmed", "method": "as §1\nFigure S2. Dose response curves for compounds 13, 44, 53, 54, and 55. B103 cells stably expressing LPA2 receptor were incubated with different concentrations of the compound under study and […]\nCurves were generated with PRISM software version 5 (GraphPad Software Inc, San Diego, CA, USA) using nonlinear regression analysis. Each data point corresponds to the mean±SEM of two to four independent experiments carried out in triplicate or quadruplicate."}, "LPA2 [2]": {"target": "T1, LPA2", "assay": "Ca2+ mobilization assay, agonist activity at LPA2", "type": "cell-based", "settings": "10 μM compound", "method": "The agonist activity at LPA2 receptors was determined at 10 μM concentration for all final compounds as previously described.[18]\nFigure S1. Representative snapshots showing the lack of significant agonist activity of selected compounds. (A) 1; (B) 13; (C) 54; and (D) Ki16425. (E) Graphs show the agonist activity induced […]\nstably expressing LPA2 receptor were plated on collagen-coated black-wall clear-bottom 96-well plates (Corning) at a density of 50000 cells/well and cultured overnight. The culture medium was then replaced with Fluo-4 NW dye loading solution containing 2.5 µM of probenecid and incubated […]\nfor 30 minutes at 37 °C followed by an additional 30 minutes at rt. Fluorescence changes were registered in a FluoStar Optima instrument (BMG Labtech) at 525 nm using an excitation wavelength of 494 nm. Each well was monitored for 240 s. 20 µL of the test compound from a 6x stock solution in assay buffer were added after 120 s of starting the measurement. Ca2+ transient increase was quantified by calculating the difference between maximum and baseline values for each […]\nGraphs shown are representative of two to three independent experiments."}, "LPA4": {"target": "LPA4 (Homo sapiens, UniProt Q99677)", "sequence (Q99677 whole entry, species assumed)": "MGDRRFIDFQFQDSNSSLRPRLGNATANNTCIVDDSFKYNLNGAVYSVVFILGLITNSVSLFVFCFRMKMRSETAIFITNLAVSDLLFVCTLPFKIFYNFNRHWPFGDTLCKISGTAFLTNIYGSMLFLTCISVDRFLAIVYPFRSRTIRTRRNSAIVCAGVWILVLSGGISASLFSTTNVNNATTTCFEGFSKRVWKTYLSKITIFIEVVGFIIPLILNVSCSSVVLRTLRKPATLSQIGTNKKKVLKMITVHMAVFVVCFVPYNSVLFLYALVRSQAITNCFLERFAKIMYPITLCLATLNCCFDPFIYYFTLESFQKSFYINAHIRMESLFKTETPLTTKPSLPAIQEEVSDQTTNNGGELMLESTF", "settings": "in abstract", "method": "(§2) The assay was analyzed using a benchtop Compensated Interferometric Reader (CIR) that measured the light refractive index (ΔRI) change from binding-induced conformational and/or hydration changes produced by real time binding events in a sample (receptor containing nanovesicles plus compound) and compared to a nonbinding reference (RI matched buffer plus compound).[30] Finally, the interferometric signal from vector nanovesicles binding (nonspecific) to compound was subtracted from the LPA2,4–6 containing nanovesicles binding (total) to compound, to determine the specific binding interactions of the compounds to LPA2,4–6. The concentration-dependent change in RI (ΔRI) signal from the compounds to LPA2,4–6 or vector was fitted using the single site total vs nonspecific binding isotherm using GraphPad Prism. Specific KD values were determined by fitting the total minus nonspecific signal to a single site binding isotherm.\n(§3) The detailed free solution assay method was described previously.[25],[26] All the compounds were dissolved in 100% DMSO, aliquoted, and frozen at −80 °C for 1 week. The compound dilution series was freshly prepared in 0.5% DMSO/PBS (pH 7.4) to keep the maximum compound in solution. […]"}, "LPA5": {"target": "LPA5 (Homo sapiens, UniProt Q9H1C0)", "sequence (Q9H1C0 whole entry, species assumed)": "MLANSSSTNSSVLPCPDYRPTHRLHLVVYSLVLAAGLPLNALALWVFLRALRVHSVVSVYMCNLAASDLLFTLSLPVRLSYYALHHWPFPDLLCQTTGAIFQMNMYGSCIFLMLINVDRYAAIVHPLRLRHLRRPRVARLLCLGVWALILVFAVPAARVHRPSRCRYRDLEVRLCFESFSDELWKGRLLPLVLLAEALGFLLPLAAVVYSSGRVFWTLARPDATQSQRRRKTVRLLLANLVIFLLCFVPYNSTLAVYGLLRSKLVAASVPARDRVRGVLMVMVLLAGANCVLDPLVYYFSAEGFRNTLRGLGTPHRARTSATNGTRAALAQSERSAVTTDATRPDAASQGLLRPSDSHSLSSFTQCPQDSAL", "settings": "in abstract", "method": "as §2, §3"}, "[3]": {"assay": "Metabolic stability in human liver microsomes", "type": "in vitro ADME", "settings": "male, liver microsomes (pooled), 1 mg/mL protein, NADPH, 37 °C, read-out: stability (t1/2, min) HLMs", "method": "Reactions were initiated by the addition of a suspension of mouse liver microsomes (MLMs) (male CD-1 mice pooled, Sigma-Aldrich) or human liver microsomes (HLMs) (male human pooled, Sigma-Aldrich), respectively, at a final protein concentration of 1 mg/mL. […] Aliquots of 100 μL were quenched at time zero and at seven points ranging to 2 h (MLM) or 4 h (HLM) by pouring into 100 μL of ice-cold acetonitrile. […] The relative disappearance of the compound under study over the course of the incubation was monitored by HPLC-MS using SIM mode. Concentrations were quantified by measuring the area under the peak ([M + H]^+) normalized with an internal standard and converted to the percentage of compound remaining, using the time zero peak area value as 100%. The natural logarithm of the remaining percentage versus time data for each compound was fit to a linear regression, and the slope was used to calculate the degradation half-life (t1/2)."}},
  "data": [
    {"smiles": "Cc1[nH]nc(-c2ccc(OCc3nnn[nH]3)cc2O)c1Oc1ccc(Cl)cc1Cl", "note": "[Compound 54]", "values": [
      {"measurement": "Emax (%) LPA1", "setting": "LPA1", "value": "inactive and N.E."},
      {"measurement": "Emax", "setting": "LPA2 [1]", "value": "90 ± 2", "unit": "%"},
      {"measurement": "IC50", "setting": "LPA2 [1]; antagonism of 10 μM LPA, mean ± s.e.m.", "value": 1.9, "unit": "µM"},
      {"measurement": "agonist activity at LPA2 receptor", "setting": "LPA2 [2]", "value": "lack"},
      {"measurement": "activity at LPA4 receptor", "setting": "LPA4", "value": "inactive"},
      {"measurement": "activity at LPA5 receptor", "setting": "LPA5", "value": "inactive"},
      {"measurement": "half-life at 5 μM", "setting": "[3]", "value": "97 ± 15", "unit": "min"}
    ]}
  ]
}
